Experimental data from patent publication US5976797A, “Method for quantifying total mRNA with poly(A)-complementary oligonucleotide-immobilized microtiter plate” (Hitachi Chemical Co., Ltd., priority 1996, dated 1999).
≈ marks a conversion by molar mass, not a printed value.

Legend:
[1] = test system: HL-60 human promyelocytic leukemia cell line; assay: MTT assay, HL-60 cells; format: cell-based; conditions: mean ± SD, n = 4; for IC50: Homo sapiens, HL-60
Procedure: (§1) The CaR-1 human colon cancer cell line (JCRB0207) was a gift from Dr. K. Miyazaki (Kihara Institute for Biological Research, Yokohama, Japan). YOYO-1™ was purchased from Molecular Probes (Eugene, Oreg.). All other chemicals were purchased from Sigma (St. Louis, Mis.). Oligonucleotides were synthesized by a synthesizer (Applied Biosystems, San Jose, Calif.) according to the manufacturer's protocol.
(§2) U937, HL-60 and CaR-1 cells were grown in RPMI 1640 containing 50 units/ml penicillin, 50 μg/ml streptomycin, and 10% FCS at 37° C. in 5% CO2, 95% air. HepG2 cells were grown in Eagle's minimum essential medium (MEM) with 0.1 mM nonessential amino acids, 1 mM sodium pyruvate and Earle's balance solution (BSS). Floating cells were subcultured two to three times a week and adherent cells were removed by trypsinization and subcultured two to four times a month. Initial cell viability was always more than 95% as assessed by the exclusion of trypan blue (Ausubel et al., Current Protocols in Molecular Biology, John Wiley & Sons 1988; 11.5.1-11.5.2). The number of cells was determined in a hemocytometer.
(§3) The following drugs have been tested using the reported peak plasma concentrations (PPCs) achieved during intravenous administration of clinical doses (Werner et al., Cancer Treat Rep 1986; 70:1379-1382). […] The drugs were tested at 0.001, 0.01, 0.1, 1.0 and 10× PPC. Vinblastine was occasionally tested at 100× PPC.
(§4) Cells were suspended in medium supplemented with 10% FCS, and 100 μl of single cell suspension containing 1×10^5 cells were added to the individual wells on 96 well microtiter plates. One hundred μl of anticancer drugs were added to each well to give the final concentrations as indicated above. The plates were incubated at 37° C. in a humidified atmosphere containing 5% CO2 in air for various periods. Twenty μl of 0.25% MTT in PBS was added to each well, and plates were incubated for an additional three hours. After centrifugation, supernatant solutions were removed and 200 μl of dimethyl sulfoxide were added to dissolve formazon products, and the plates were shaken for five minutes on a plate shaker (IS-963, Tomy, Palo Alto, Calif.). The absorbance of the well was read on a microplate spectrophotometer (Thermo max, Molecular Device, Mountain View, Calif.) using wavelength at 560 nm.
(§5) Chemosensitivity was assessed for both continuous drug exposure and transient exposure (two hours). Total cytosolic poly(A)+ mRNA was measured as described in the Methods.

[2] = test system: U937 human histiocytic lymphomas cell line; assay: total mRNA assay (GENEPLATE, YOYO-1), U937 cells; format: cell-based; conditions: mean ± SD, n = 4; for IC50: Homo sapiens, U-937
Procedure: as §1, §2
The drugs were tested at 0.001, 0.01, 0.1, 1.0 and 10× PPC. Vinblastine was occasionally tested at 100× PPC.
(§6) Detailed procedures were described in our previous publication (Tominaga et al., Clin. Chem. 1996; 42:11, 1750-1757). In brief, 1 ml of cell suspension containing 5×10^5 cells were plated to each well of 12-well tissue culture plates for various periods, and each drug was exposed continuously or for two hours. Harvested cultured cells were washed with PBS one to two times. Cells were then resuspended in 200 μl of diethylpyrocarbonate (DEPC) -treated lysis buffer (10 mM Tris, pH7.5, 1 mM EDTA, 0.5M NaCl, 0.5% NP-40 and 20 mM VRC for five minutes on ice, then immediately centrifuged at 15,000 xg at 4° C. for five minutes. Fifty μl each of the supernatant was applied to the GENEPLATE™ (oligonucleotide-immobilized microplate) (Mitsuhashi et al., Nature 1992, 357:519-520). After one hour incubation at room temperature, unbound non-mRNA was removed by aspiration and washed with a low salt buffer (10 mM Tris, pH 7.6, 1 mM EDTA, 0.1 M naCl) three times. Fifty μl of YOYO-1™ in the final dilution of 1:1000 in TAE buffer (40 mM Tris-acetate, pH 8.0, 1 mM EDTA) was added to each well, and the fluorescence intensity of each well was measured by a fluorescent plate reader (CytoFlour™ 2300, Millipore, Bedford, Mass.) with excitation and emission wavelengths of 485 nm (bandwidth 20 nm) and 530 nm (bandwidth 25 nm), respectively, as previously described (Glazer et al., Nature 1992;359:859-861 and Ogura et al., Biotechniques 1994; 18:231-232).
as §5
(§7) U937 cells were seeded at a density of 1×10^6 cells/ml in RPMI containing 10% FCS in a 96-well plate for MTT assay (.gradient.,.quadrature.) and a 24-well plate for the mRNA assay (.circle-solid.,.tangle-soliddn.). […] The values indicated in the means±standard error of triplicate determinations from a single experiment. Similar results were reproduced in more than three independent experiments (data not shown). […] MTT and mRNA assays were carried out as described in the Methods. The data obtained from the three-day MTT assay with 1× PPC (x-axis) were compared with those of the 12-hour mRNA assay with 10× PPC (y-axis). FIG. 8D (Total) is a mixture of FIGS. 8A-8C. Each point represents the means of triplicate determinations.

[3] = test system: HL-60 human promyelocytic leukemia cell line; assay: total mRNA assay (GENEPLATE, YOYO-1), HL-60 cells; format: cell-based; conditions: mean ± SD, n = 4; for IC50: Homo sapiens, HL-60
Procedure: as §1, §2, §3, §6, §5

[4] = test system: HepG2 human hepatocellular line; assay: total mRNA assay (GENEPLATE, YOYO-1), HepG2 cells; format: cell-based; conditions: mean ± SD, n = 4; for IC50: Homo sapiens
Procedure: as §1, §2, §3, §6, §5

[5] = test system: CaR-1 human colon cancer cell line; assay: MTT assay, CaR-1 cells; format: cell-based; conditions: mean ± SD, n = 4; for IC50: Homo sapiens
Procedure: as §1, §2, §3, §4, §5

[6] = test system: U937 human histiocytic lymphomas cell line; assay: MTT assay, U937 cells; format: cell-based; conditions: for IC50: Homo sapiens, U-937; for IC50 / IC50 (MTT): mean ± SD, n = 4
Procedure: as §1, §2, §3, §4, §5, §7

[7] = test system: HepG2 human hepatocellular line; assay: MTT assay, HepG2 cells; format: cell-based; conditions: mean ± SD, n = 4; for IC50: Homo sapiens
Procedure: as §1, §2, §3, §4, §5

[8] = test system: CaR-1 human colon cancer cell line; assay: total mRNA assay (GENEPLATE, YOYO-1), CaR-1 cells; format: cell-based; conditions: mean ± SD, n = 4; for IC50: Homo sapiens
Procedure: as §1, §2, §3, §6, §5

U937 cells = assay: quantification of cytosolic mRNA after PMA-induced differentiation, U937 cells; format: cell-based, human
Excerpt: (§8) We obtained from the respective suppliers human Jurkat, Molt-4, U937, and HL-60 cells (American Type Culture Collection, Rockville, Md.); MICROFAST TRACK™ 228 Kit (mRNA purification kit using oligo-(dT) cellulose, (Invitrogen, San Diego, Calif.); cell culture media, fetal calf serum, (FCS: fatal calf serum), phosphate-buffered saline (PBS: phosphate-buffered saline), rabbit globin mRNA, and vanadyl-ribonucleosidecomplex (VRC: vanadyl-ribonucleoside complex; Gibco-BRL, Baithersburg, Md.); Isolymph (Gallard-Schlesinger, Carle Place, N.Y.); calf thymus DNA (Clontech, Palo Alto, Calif.); DNase (Boehringer Mannheim, Indianapolis, Ind.); RNase (Stratagene, La Jolla, Calif.); and GENEPLATE™ (oligonucleotide-immobilized microplate,(Hitachi Chemical Research Center, Irvine Calif. and Hitachi Chemical Co., Ibaraki, Japan). All other chemicals were purchased from Sigma Chemical Co. (St. Louis, Mis.). Oligonucleotides were synthesized by a synthesizer (Applied Biosystems, San Jose, Calif.), according to the manufacturer's protocol.
(§9) Human Jurkat and Molt-4 cells were grown in RPMI 1640 containing 100 U/mL penicillin, 100 μg/mL streptomycin, and 100 mL/L FCS at 37° C. in CO2 :air, 5:95 (by vol). […] Each cell line was subcultured two to three times a week, and viability was always >90%, as assessed by the exclusion of trypan blue. The number of cells was determined with a hemocytometer. […]

HL-60 cells = assay: quantification of cytosolic mRNA after PMA-induced differentiation, HL-60 cells; format: cell-based, human
Excerpt: as §8, §9

[9] = HL60, continuous exposure 72 hours
[10] = HL60, transient exposure 2 hours
[11] = U937, continuous exposure 72 hours
[12] = U937, transient exposure 2 hours
[13] = HepG2, continuous exposure, printed 82 hours
[14] = HepG2, transient exposure 2 hours
[15] = CaR-1, continuous exposure 72 hours
[16] = CaR-1, transient exposure 2 hours
[17] = 48 h after PMA treatment (160 nmol/L), n=8, P<0.01
[18] = phorbol ester-induced differentiated

| SMILES | IC50 [1, 9] | IC50 [1, 10] | IC50 [2, 11] | IC50 [2, 12] | IC50 [3, 9] | IC50 [3, 10] | IC50 [4, 13] | IC50 [4, 14] | IC50 [5, 15] | IC50 [5, 16] | IC50 [6, 11] | IC50 [6, 12] | IC50 [7, 13] | IC50 [7, 14] | IC50 [8, 15] | IC50 [8, 16] | further results |
| --- | --- | --- | --- | --- | --- | --- | --- | --- | --- | --- | --- | --- | --- | --- | --- | --- | --- |
| CC[C@]1(O)C[C@@H]2CN(CCc3c([nH]c4ccccc34)[C@@](C(=O)OC)(c3cc4c(cc3OC)N(C)[C@H]3[C@@](O)(C(=O)OC)[C@H](OC(C)=O)[C@]5(CC)C=CCN6CC[C@]43[C@@H]65)C2)C1 [Vinblastine, vinblastine] | < 0.0005 µg/mL | 0.026 ± 0.001 µg/mL (≈ 0.0321 µM) | < 0.0005 µg/mL | 0.029 ± 0.001 µg/mL (≈ 0.0358 µM) | < 0.0005 µg/mL | 0.031 µg/mL (≈ 0.0382 µM) | 3.45 ± 0.63 µg/mL (≈ 4.25 µM) | 34.6 ± 1.75 µg/mL (≈ 42.7 µM) | 22.2 ± 14.4 µg/mL (≈ 27.3 µM) | > 50 µg/mL | < 0.0005 µg/mL | 0.034 ± 0.003 µg/mL (≈ 0.0419 µM) | 32.6 ± 8.46 µg/mL (≈ 40.2 µM) | > 50 µg/mL | 34.9 ± 4.8 µg/mL (≈ 43 µM) | > 50 µg/mL |  |
| CCCCCCCCCCCCCC(=O)O[C@@H]1[C@@H](C)[C@@]2(O)[C@@H](C=C(CO)C[C@]3(O)C(=O)C(C)=C[C@@H]23)[C@@H]2C(C)(C)[C@]12OC(C)=O [PMA, phorbol 12-myristate 13-acetate] |  |  |  |  |  |  |  |  |  |  |  |  |  |  |  |  | mRNA content in 10^6 differentiated U937 cells (U937 cells; [17]): 145.3±13.9 μg/mL; amount of cytosolic mRNA in differentiated U937 cells (U937 cells; [18]): 145.3±13.9 ng/10^6 cells; mRNA content in 10^6 differentiated HL-60 cells (HL-60 cells; [17]): 164.7±11.6 μg/mL; amount of cytosolic mRNA in differentiated HL-60 cells (HL-60 cells; [18]): 164.7±11.6 ng/10^6 cells |
| CO[C@@]12[C@H](COC(N)=O)C3=C(C(=O)C(C)=C(N)C3=O)N1C[C@@H]1N[C@@H]12 [Mitomycin C, mitomycin C] | 0.045 µg/mL (≈ 0.135 µM) | 1.34 ± 0.01 µg/mL (≈ 4.01 µM) | 0.23 ± 0.03 µg/mL (≈ 0.688 µM) | 2.01 ± 0.11 µg/mL (≈ 6.01 µM) | 0.22 ± 0.01 µg/mL (≈ 0.658 µM) | 2.29 µg/mL (≈ 6.85 µM) | 1.89 ± 0.06 µg/mL (≈ 5.65 µM) | 36.9 µg/mL (≈ 110 µM) | 2.12 ± 0.08 µg/mL (≈ 6.34 µM) | 21.3 µg/mL (≈ 63.7 µM) | 0.29 ± 0.01 µg/mL (≈ 0.867 µM) | 2.46 ± 0.04 µg/mL (≈ 7.36 µM) | 2.08 ± 0.09 µg/mL (≈ 6.22 µM) | 24.2 ± 0.81 µg/mL (≈ 72.4 µM) | 2 ± 0.16 µg/mL (≈ 5.98 µM) | 21.3 ± 0.95 µg/mL (≈ 63.7 µM) |  |
| N.N.[Cl][Pt][Cl] [Cisplatin, cisplatin] |  |  |  |  |  |  |  |  |  |  |  |  |  |  |  |  | IC50 (MTT) [1, 9]: 1.14 ± 0.01 µg/mL; IC50 (MTT) [1, 10]: 12.68 ± 0.30 µg/mL; IC50 (mRNA) [2, 11]: 1.58 ± 0.39 µg/mL; IC50 (mRNA) [2, 12]: 18.52 ± 4.69 µg/mL; IC50 (mRNA) [3, 9]: 1.21 µg/mL; IC50 (mRNA) [3, 10]: 9.30 µg/mL; IC50 (mRNA) [4, 13]: 9.81 ± 0.64 µg/mL; IC50 (mRNA) [4, 14]: > 20 µg/mL; IC50 (MTT) [5, 15]: 3.08 ± 0.54 µg/mL; IC50 (MTT) [5, 16]: > 20 µg/mL; time after drug treatment at which similar reduction was observed, MTT assay ([6]; U937, 10× PPC, continuous exposure): 48 h; IC50 (MTT) [6, 11]: 1.77 ± 0.05 µg/mL; IC50 (MTT) [6, 12]: 22.65 ± 0.03 µg/mL; IC50 (MTT) [7, 13]: 8.86 ± 0.40 µg/mL; IC50 (MTT) [7, 14]: > 20 µg/mL; IC50 (mRNA) [8, 15]: 3.09 ± 0.34 µg/mL; IC50 (mRNA) [8, 16]: > 20 µg/mL |
